In patent US20230210110A1, “METHOD FOR INDUCING ENVIRONMENTAL STRESS TOLERANCE IN PLANTS” (AJINOMOTO CO., INC., priority 2020, published 2023):
“Also recorded” adds a separate entry of the source.

What was measured:
[1] = tested on: RD29A, RD29B, MAPKKK18, ABF3F and SLAC1 genes; assay: Induction of expression of environmental stress tolerance (ABA-responsive) genes, real-time PCR, relative to GAPDH; type: in vivo, Arabidopsis thaliana
Protocol: (§1) Four to six young Arabidopsis thaliana plants grown on a 50% concentration MS (Murashige-Skoog) agar medium were transferred to a 6-well plate containing a 50% concentration MS (Murashige-Skoog) liquid medium and pre-cultured for 16 hours, then added with a treatment solution containing each amino acid alone or a treatment solution containing a combination of each amino acid and ABA, and left for 6 hours. Then, RNA was then isolated from the plants with a nucleic acid purification kit (Promega, Maxwell (registered trademark) 16 LEV simplyRNA Tissue Kit). Then, cDNA was synthesized with a cDNA synthesis reagent for real-time PCR (Toyobo, ReverTra Ace (registered trademark) qPCR RT Master Mix).
MAPKKK18 is a gene encoding a kinase (MAPKKK18, MITOGEN-ACTIVATED PROTEIN KINASE KINASE KINASE 18) that functions in the ABA signaling pathway of Arabidopsis thaliana (Zelicourt A. et al., Trends in Plant Science 21: (2016)). RD29A and RD29B are genes encoding hydrophilic proteins (RESPONSIVE TO DESICCATION 29A, RESPONSIVE TO DESICCATION 29B) that are responsive for ABA and environmental stress such as drought stress and salinity stress and considered to be involved in stress tolerance and senescence suppression (Yang S. D. et al., Plant Cell 6: 2155-2168 (2011)). ABF3 is a gene encoding a transcription factor (ABA-responsive element-binding protein) that regulates expression of ABA-responsive genes (Yoshida T. et al., Plant, cell and Environment 38: 35-49 (2015)). SLAC1 is a gene encoding an anion channel involved in stomatal closure (Yoshida et al., J Plant Res (2016) 129:39-49). GAPDH is a glyceraldehyde-3-phosphate dehydrogenase gene and was selected as an internal standard.
The expression levels of the genes were calculated as relative expression levels to the GAPDH gene. Twenty amino acids were divided into 10 each, and the gene expression inducing activity when combined with ABA was evaluated in two tests (n=2).
(§2) The expression levels of the respective genes were calculated as relative expression levels to the GAPDH gene in the same manner as in Example 1.
Separately, Arabidopsis thaliana was treated with a combination of 0.1 mM, 0.25 mM, 1 mM, 2.5 mM, 10 mM, or 25 mM of Lys and 0.25 μM of ABA in the same manner as in Example 1, and expression of MAPKKK18, RD29A, and RD29B genes after 6 hours of treatment was analyzed (n=3). The expression levels of the respective genes were calculated as relative expression levels to the GAPDH gene in the same manner as in Example 1. […]
as §2, §2

Arabidopsis thaliana [2] = assay: Drought stress tolerance: dehydration amount during cultivation without water supply; type: in vivo; details: spray, control approximately 77%
Protocol: A test for verifying an effect of conferring drought stress tolerance by a combination of Lys and ABA was carried out (n=4). For Arabidopsis thaliana grown on rockwool under short-day conditions for 35 days, the weight of the rockwool and the whole plant was measured, to determine the initial weight. Arabidopsis thaliana was spray treated with 2.5 mM of Lys and 5 μM or 50 μM of ABA alone or in combination (first spray treatment). As a control treatment group, Arabidopsis thaliana was spray treated with DMSO (first spray treatment). After the first spray treatment, cultivation was continued for 7 days without water supply. During cultivation, a second spray treatment was carried out 4 days after the first spray treatment. The weight of the rockwool and the whole plant was measured 4 and 7 days after the first spray treatment, to determine the post-cultivation weight. The post-cultivation weight was subtracted from the initial weight, to determine the dehydration amount during cultivation.

Arabidopsis thaliana [3] = assay: Drought stress tolerance: survival rate after drought and re-watering; type: in vivo; details: 12 days after spray, water supplied again at 9 days; 50 μM ABA (2.5 mM Lys in the combination); Mock 8.5%
Protocol: A test for verifying an effect of conferring drought stress tolerance by a combination of Lys and ABA was carried out. Arabidopsis thaliana grown on rockwool under short-day conditions for 35 days was spray treated with 50 μM of ABA alone or with 2.5 mM of Lys and 50 μM of ABA in combination. As a control treatment group (Mock), Arabidopsis thaliana was spray treated with DMSO. After the spray treatment, cultivation was continued without water supply, to subject Arabidopsis thaliana to drought stress. Water was again supplied to Arabidopsis thaliana 9 days after the spray treatment, and the survival rate was measured 12 days after the spray treatment (n=94-96).

Wheat (Norin 61) = assay: Drought stress tolerance of wheat: water loss and survival rate; type: in vivo; details: 10 μM ABA (2.5 mM Lys in the combination)
Protocol: A test for verifying an effect of conferring drought stress tolerance by a combination of Lys and ABA in wheat was carried out. Wheat (Norin 61) grown on rockwool under long-day conditions for 13 days was spray treated with 10 μM of ABA alone or with 2.5 mM or 10 mM of Lys and 10 μM of ABA in combination. As a control treatment group (Mock), the wheat was spray treated with DMSO. After the spray treatment, cultivation was continued without water supply, to subject wheat to drought stress. During cultivation, the water loss from the rockwool was measured. Water was again supplied to the wheat 21 days after the spray treatment, and the survival rate was measured 23 days after the spray treatment (n=24).

tomato (variety Caramba) = assay: Yield of tomato under drought stress, greenhouse pot test; type: in vivo; details: for Yield (g/plot accumulation): drought stress 50% water, four foliar sprays, ABA is (S)-(+)-abscisic acid, Lys is L-Lys hydrochloride, control with drought 924.2; for % to T2: yield relative to control with drought stress (T2)
Protocol: A pot test of tomato was carried out in a greenhouse in Valencia, Spain. The test was carried out using 20 pots (=20 replications) of tomatoes grown on pots of 0.3 m^2 size. The variety of tomato used was Caramba. Abscisic acid used was (S)-(+)-abscisic acid and Lys used was L-Lys hydrochloride. Foliar spray treatments were carried out four times. The first treatment was carried out at time 61 on the BBCH scale (BBCH61: when the first flower of the first inflorescence bloomed), the second treatment was carried out 21 days after the first treatment, the third treatment was carried out 14 days after the second treatment, and the fourth treatment was carried out 14 days after the third treatment. A harvest survey was carried out at time 82 on the BBCH scale (BBCH82: when 20% of the fruit were fully ripe and colored).

RD29B and MAPKKK18 = assay: Effect of Lys derivatives and nitrogen-containing compounds on induction of environmental stress tolerance genes by ABA (activity level); type: in vivo, Arabidopsis thaliana; details: total of induction activities of RD29B and MAPKKK18 with 1 mM compound and 0.25 μM ABA, relative to ABA alone taken as 1; >1 enhanced, 1 no effect, <1 suppressed
Protocol: as §1
GAPDH is a glyceraldehyde-3-phosphate dehydrogenase gene and was selected as an internal standard.
Lys or each Lys derivative is used for treatment at 1 mM and ABA at 0.25 μM.

[4] = tested on: RD29A, RD29B, MAPKKK18, ABF3F and SLAC1 genes; assay: Induction of expression of environmental stress tolerance (ABA-responsive) genes, real-time PCR, relative to GAPDH; type: in vivo, Arabidopsis thaliana; details: amino acid alone or combination with ABA, 6 hours, n=3
[5] = MAPKKK18, RD29A, RD29B, 0.05-2.5 mM Lys with 0.25 μM ABA, 6 hours, upper panel of FIG. 3

Compound: CC1=CC(=O)CC(C)(C)C1(O)/C=C/C(C)=C\C(=O)O (racemic) [ABA, abscisic acid, reference compound]
- Expression induction of RD29A and RD29B genes by ABA ([1]; wild-type strain (WT, Col-0), 0.25 μM ABA, 6 hours): observed
- dehydration amount on the 4th day (Arabidopsis thaliana [2]; 5 μM ABA (2.5 mM Lys in the combination)): approximately 80.1%
- dehydration amount on the 4th day (Arabidopsis thaliana [2]; 50 μM ABA (2.5 mM Lys in the combination)): approximately 57%
- survival rate (Arabidopsis thaliana [3]): 13.5%
- survival rate (Wheat (Norin 61); 23 days after spray, water supplied again at 21 days, Mock 9.4%): 6.7%
- dehydration amount on the 5th day (Wheat (Norin 61); spray, control approximately 84%): approximately 61%
- dehydration amount on the 6th day (Wheat (Norin 61); spray, control approximately 91%): approximately 82%
- Yield (g/plot accumulation) (tomato (variety Caramba); 10 μM ABA and/or 2.5 mM Lys): 1008.1 g/plot
- Yield (g/plot accumulation) (tomato (variety Caramba); 100 μM ABA and/or 25 mM Lys): 1081.6 g/plot
- % to T2 (tomato (variety Caramba); 10 μM ABA and/or 2.5 mM Lys): 109.1%
- % to T2 (tomato (variety Caramba); 100 μM ABA and/or 25 mM Lys): 117.0%
- Activity level (RD29B and MAPKKK18): 1

Compound: NCCCC[C@H](N)C(=O)O [No. 1, lysine]
- activity of synergistically enhancing the effect of the natural-type ABA ([1]; Lys in combination with natural-type ABA ((S)-(+)-ABA)): synergistically enhance the effect of the natural-type ABA
- Lys concentrations at which Lys concentration-dependent improvement in expression inducing activity was observed [1, 5]: ≥ 0.25 mM
- Lys concentrations at which no improvement in expression inducing activity was observed [1, 5]: ≤ 0.1 mM
- Lys concentration-dependent improvement in expression inducing activity ([1]; MAPKKK18, RD29A, RD29B, 0.1-25 mM Lys with 0.25 μM ABA, 6 hours, lower panel of FIG. 3): at least up to Lys concentrations of 10 mM or 25 mM
- effect of Lys on inducing expression of environmental stress tolerance genes by ABA ([1]; MAPKKK18 and RD29B, 1 mM Lys in combination with 0.25 μM ABA, 6 hours): enhanced
- effect of Lys on inducing expression of environmental stress tolerance genes by ABA agonist ([1]; MAPKKK18 and RD29B, 1 mM Lys in combination with opabactin (OP), 6 hours): enhanced
- effect of Lys on inducing expression of environmental stress tolerance genes by ABA agonist ([1]; MAPKKK18 and RD29B, 1 mM Lys in combination with quinabactin (QB), 6 hours): enhanced
- activity of synergistically enhancing the effect of ABA ([1]; RD29B expression, amino acid in combination with ABA, listed as Lys): synergistically enhance the effect of ABA; also recorded: significantly high activity
- effect of enhancing the ABA activity by Lys ([1]; wild-type strain, 0.5 mM Lys with 0.25 μM ABA, 6 hours): observed
- Yield (g/plot accumulation) (tomato (variety Caramba); 10 μM ABA and/or 2.5 mM Lys): 1089.3 g/plot
- Yield (g/plot accumulation) (tomato (variety Caramba); 100 μM ABA and/or 25 mM Lys): 1114.6 g/plot
- % to T2 (tomato (variety Caramba); 10 μM ABA and/or 2.5 mM Lys): 117.9%
- % to T2 (tomato (variety Caramba); 100 μM ABA and/or 25 mM Lys): 120.6%
- activity to induce expression of the environmental stress tolerance gene RD29B [4]: No activity
